Reference: patent US8501166B2, “Pyrimidinyl indole compounds” (Hutchison Medipharma Limited, priority 2010, dated 2013)
Where a name gives a salt, the structure may show the parent alone.

Experiments:
[1] = system: LPS-induced plasma TNFα production; test: LPS-induced cytokine production in rat plasma; type: in vivo, Lewis rats; settings: oral 1 h before LPS 0.4 mg/kg i.p.
Method: Alternately, the compound is screened for its ability to inhibit the LPS-induced cytokine production in rat plasma according to the method reported in the literature (Ziegelbauer K, Gantner F, Lukacs N W, et al. Br J. Pharmacol. 2005,145(2):178-92). Briefly, Lewis rats (male, body weight 140 g-180 g) are used in the experiments. Animals (8/group) are given 1 to 100 mg/kg of the testing compound (suspension in 35% solutol & 60% PEG400 & 5% PG) or vehicle by oral gavage at 1 h prior to intraperitoneal administration of LPS 0.4 mg/kg. Ninety minutes after the intraperitoneal administration of LPS, blood is collected in heparin anticoagulated tubes to measure TNFα using R&D System ELISA Kit based on the general Kit protocols. The plasma sample is diluted 100 fold with the dilution buffer and 50 μL of diluted sample is used in each measurement. The plate is read on a SPECTRAMAX® M2e Plus Plate Reader and TNFα levels are analyzed based on the standard curve. The drug levels in plasma are measured with LC-MS-MS. […] Alternately, the compound is screened for its ability to inhibit the LPS-induced cytokine production in mouse plasma. Balb/c mice (female, body weight 18-20 g) are used in the experiments. […] The plate is read on a SPECTRMAX® M2e Plus Plate Reader and the data is analyzed using a standard curve.

[2] = system: PLP-139-151 induced EAE; test: Mouse experimental autoimmune encephalomyelitis (EAE) model; type: in vivo, SJL/J mice
[3] = system: HT-29 human colon cancer xenograft; test: Anti-tumor effects in human colon cancer HT-29 xenograft with/without CPT-11; type: in vivo, Balb/c nu/nu mice
Method: IKKβ inhibitor has been reported to repress the HT-29 tumor growth when in combination with CPT-11 (Lagadec P, Griessinger E, Nawrot M P, et al. Br. J. Cancer (2008) 98, 335-344). The anti-tumor effect of the compound is then examined in a human colon cancer HT-29 xenograft in combination with CPT-11. The compound is tested for its anti-tumor effects in a human colon cancer HT-29 xenograft with/without the co-administration of CPT-11 essentially as described in a method reported in the literature (Lagadec P, Griessinger E, Nawrot M P, et al. Br. J. Cancer (2008) 98, 335-344).
The HT-29 human colorectal adenocarcinoma cell line is obtained from ATCC and cultured in McCoy's 5a medium containing 10% fetal calf serum. Male Balb/c nu/nu mice (6-7 weeks old) are injected subcutaneously in the right lateral flank with 0.1 mL of cell suspension containing 3.0×10^6 cells. Mice are divided into six groups, seven days after cell implantation. The test compound is orally administered twice a day at 60 and 20 mg/kg. CPT-11 at 20 mg/kg is peritoneally administered twice a week. In combination treatment, CPT-11 is given 1 h after the administration of the test compound. […] Two orthogonal diameters of the tumor are measured with digital vernier calipers three times a week. Tumor volume (TV) is measured and recorded during treatment period by the formula: TV=LengthxWidth^2/2. […]

[4] = system: SKOV-3x-FF-luci human ovarian cancer xenograft; test: Anti-tumor effects in SKOV-3x-FF-luci xenograft (21 days); type: in vivo, Balb/c nu/nu mice; settings: 60 mg/kg, tid, q6 h, oral
Method: Anti-tumor Effects in Human Ovarian Cancer SKOV-3x-FF-luci Xenograft SKOV-3x-FF-luci human ovarian cancer line cell line (ATCC) is cultured in McCoy's 5a medium containing 10% fetal calf serum (FCS). Female Balb/c nu/nu mice (6-8 weeks old) are peritoneally injected with 0.2 mL of cell suspension containing 2×10^6 cells. Mice are divided into five groups six days after cell implantation. The test compound at doses of 60, 90 and 150 mg/kg is orally administered to animals for a consecutive 21 days with a twice a day (bid) or three times a day (tid) regimen. Mice in control groups are administered the vehicle (10% Acacia at pH 2.1, bid). At the end of the treatment, all mice are euthanized with CO2 and tumors in the peritoneal cavity, diaphragmatic muscle, mesenterium, liver, spleen, and ovaries are dissected and harvested, and put together for the measurement of their combined weight. Results of tumor weight and inhibition rate (IR) are evaluated. The inhibition rate is calculated with the formula: IR %=(tumor weight in control−tumor weight in drug treated)/tumor weight in control×100%.

Cl.O=C(NC1CC1)c1cccc2[nH]c(-c3nc(N[C@@H]4CCC[C@H]4O)ncc3Cl)cc12 [Example 2, 2-{5-Chloro-2-[(1R,2R)-2-hydroxycyclopentylamino]pyrimidin-4-yl}-N-cyclopropyl-1H-indole-4-carboxamide hydrochloride]
ED50 [1]: 19.8 ± 10.9 mg/kg | EC50 ([1]; read-out: EC50, plasma TNFα production (drug level in plasma)): 4.04 ± 1.28 µg/mL | body weight loss ([2]; 10 and 30 mg/kg): improves | ED50 ([2]; Mus musculus, 3, 10, and 30 mg/kg oral twice daily, read-out: ED50, EAE clinical score): 3.7 mg/kg

O=C(NC1CC1)c1cccc2[nH]c(-c3nc(N[C@@H]4CCC[C@@H]4O)ncc3Cl)cc12 [Example 1, 2-{5-Chloro-2-[(1R,2S)-2-hydroxycyclopentylamino]pyrimidin-4-yl}-N-cyclopropyl-1H-indole-4-carboxamide hydrochloride]
HT-29 tumor growth, combination with CPT-11 ([3]; 60 or 20 mg/kg p.o. + CPT-11 20 mg/kg i.p., P<0.05): enhances the anti-tumor effect of CPT-11 | HT-29 tumor growth, single agent ([3]; 60 or 20 mg/kg, p.o., twice a day): does not inhibit HT-29 tumor growth | Tumor Weight (g) (Mean ± S.D.) [4]: 0.509 ± 0.193 g | IR (tumor inhibition rate) ([4]; hydrochloride): 76.31%
